Data taken from a melting point compilation (Tetko et al.; mined from patent text by program, amines drawn as free bases though some values may be those of a salt).
Starred links: 1 amine or outer side, 2 acyl side, 3 side chain; linkers in the order of their positions; H or OH if unused. Residues, ends and D or L forms follow the SMILES beside them. Glutaryl = O=C(CCCC(=O)[*:2])[*:1]

Row | melting point [°C] | Compound
1 | 178 to 180 | Cc1ccc2c(c1)N(CC(=O)c1ccccc1C)C(=O)C(NC(=O)Nc1ccc(Cl)c(C(=O)O)c1)CN2C(=O)C(C)(C)C (stereo not drawn)
2 | 140 to 142 | O=CNC[C@H](O)C(=O)OC=O
3 | > 300 | COc1ccccc1-c1ccc2c(c1)CCCc1c-2nc2ccc(F)cc2c1C(=O)O
4 | 255 to 258 | NC(=O)c1c(F)ccc(OCc2nc3cc(-c4ccncc4)ccc3s2)c1F
5 | 104 to 105 | O=C(O)c1cccc(OCCF)c1OCCF
6 | 120 to 122 | Clc1cnc2cccc(Cl)c2n1
7 | 88.5 to 89.7 | CC(=O)Oc1ccccc1C(=O)Nc1cccc(F)c1
8 | 135 to 137 | CNC(=O)CNC(=S)c1cccnc1
9 | 227 to 230 | CC(C)(C)OC(=O)c1c(N)sc2c1CCOC2CN1C(=O)c2ccccc2C1=O (stereo not drawn)
10 | 127 | COc1cccc(Cn2c(-c3cc(OC)c(OC)c(OC)c3)nc3ccccc32)c1
11 | 188 to 190 | Nc1cnc2cccnc2c1Cl
12 | 59 to 60 | COc1ccc([C@H]2[C@@H](c3ccccc3)C2(Cl)Cl)cc1 (relative stereo)
13 | 165 to 166 | NS(=O)(=O)c1ccc(CCCNCC(O)c2ccccc2)cc1 (stereo not drawn)
14 | 315 to 318 | Cc1nc(-c2ccc(-c3cnc4[nH]c(=O)n(CC5CCCCC5)c4n3)cc2)n[nH]1
15 | 215 to 217 | O=S1CCN(c2nc(N3CCNCC3)cc3c(Cl)cccc23)CC1
16 | > 300 | C#CCc1c(O)nc(C)nc1O
17 | 224 to 226 | O=C(NCCn1c2ccccc2c(=O)c2ccccc21)OCc1ccccc1
18 | 50 to 51 | CCCCCC(=O)OCCCOc1ccc(Nc2ccccc2)cc1
19 | 154 to 156 | CCNC(=O)C1CCCN1C(=O)C(C)NC(=O)C(C)NC(=O)CCCC(=O)O (stereo not drawn) (Glutaryl-Ala-Ala-Pro-NHEt; configuration not given here)
20 | 203 to 204 | COC(=O)CCc1cc(S(C)(=O)=O)cc(-c2nc(=O)c3ccc(Cl)cc3s2)n1
21 | 172 to 179 | O=C(O)Cn1cnc2c(NC3CCCCC3)nc(NCc3ccc(C4CCCCC4)cc3)nc21
22 | 126 to 127 | CN1CCC(C2(O)c3cc(F)ccc3CCc3cccnc32)CC1 (stereo not drawn)
23 | 84 to 85 | CC(CBr)=C(C(=O)OCc1ccccc1)N1C(=O)C(Br)(Br)C1Br (stereo not drawn)

Row | melting point [°C] | Compound
24 | 104 to 106 | CCCP(=O)(CCC)Cc1ccc(N)cc1
25 | 68 to 71 | O=C(NC(=O)N(SC(Cl)(Cl)Cl)c1ccc(Oc2ccc(C(F)(F)F)cc2Cl)cc1)c1ccccc1Cl
26 | 171 to 172 | CC(=O)NCCCCCCOc1ccccc1C(=O)Nc1ccc(C(=O)N2CCCCc3ccccc32)cc1
27 | 171 | O=C1c2ccccc2C(=O)N1Cc1cc([N+](=O)[O-])cc([N+](=O)[O-])c1
28 | 87 to 88 | COc1cc2ccc(C=O)cc2cc1OC
29 | 147 to 151 | O=C(Nc1cccc(O)c1)C(CS)C(F)(F)F (stereo not drawn)
30 | 70 | CC(C)(C)OC(=O)NCC(=O)OCCCCNc1cccc2c1C(=O)c1ccccc1C2=O
31 | 192 to 193 | CC1(C)OC(=S)Nc2ccc(-c3cc(Br)cc(OC(F)(F)F)c3)cc21
32 | 99 to 101 | O=Cc1cc(I)ccc1O
33 | 188 | CC(C)CCCC(C)CCOc1ccc2c(c1)[nH]c1ccccc12 (stereo not drawn)
34 | 236 to 238 | COc1ccc(C2=C(OC(C)=O)C(=O)Nc3ccc(Cl)cc3S2)cc1
35 | 56 to 68 | Nc1c(Cl)cccc1CO
36 | 117 | C=CCOc1ccc2c(C)c(F)c(=O)oc2c1C
37 | 199 to 203 | C=CCc1cc2c(cc1O)CCC(=O)N2CC=Cc1ccccc1
38 | 222 to 225 | CCCCn1c(CCCCN(C(N)=O)c2ccccc2)nc2c(N)nc3ccccc3c21
39 | 160 to 162 | O=C(Nc1ccc(F)cc1)NC1CCN(S(=O)(=O)c2ccc(Cl)cc2)CC1
40 | 239 to 243 | COc1c(C(C)(C)C)cc(COc2cccc(C=C3SC(=S)NC3=O)c2)cc1C(C)(C)C
41 | 167 to 170 | COCCNn1ncc2nc(C)ccc21
42 | 120 to 123 | NS(=O)(=O)c1ccc(-c2cnn(Cc3ccccc3)c(=O)c2Cc2ccc(F)cc2)cc1
43 | 173 to 175 | CCn1ncc2c3onc(-c4ccc(C)cc4)c3cnc21
44 | 76 to 77 | CN(C)CCOC(=O)C(=O)c1ccc(OCCOc2ccc3ccccc3c2)s1
45 | 210 to 211 | COc1ccc2cc(C(=O)O)n(CCNC(C)=O)c2c1
46 | 181 to 182 | Cc1cc2c(c(C)c1NC(=O)CC(C)(C)C)CC(C)(C)O2

Row | melting point [°C] | Compound
47 | 160 to 161 | CCSNc1c(C#N)c(C)nn1-c1c(Cl)cc(C(F)(F)F)cc1Cl
48 | 207 to 209 | CC(C)(O)c1ccc(-c2cnc3[nH]c(=O)n(CC4CCOCC4)c3n2)cn1
49 | 95 to 97 | CCCCSc1cc([N+](=O)[O-])cc2c1C(=O)OC2=O
50 | 116 | CC(=O)N1CCc2cc(C(O)CN(Cc3ccccc3)Cc3ccccc3)ccc21 (stereo not drawn)
51 | 138 to 140 | CC(C)(Oc1ccc(OCc2nc(-c3ccc(C(C)(C)C)cc3)no2)cc1)C(=O)O
52 | 135 | COc1cc(N(C)C)ccc1CN1C(=O)C(C)(c2ccccc2Cl)c2cc(Cl)ccc21 (stereo not drawn)
53 | 47 to 48 | O=Cc1ccc(Cl)cc1O
54 | 119 | CC(C)c1cccc(S(=O)(=O)n2c(CCCCC(=O)O)cc3cc(C(F)(F)F)ccc32)c1
55 | 140 to 144 | CCOC(=O)C1=C(COCc2nnc(C)s2)NC(C)=C(C(=O)OC)C1c1cccc(Cl)c1Cl (stereo not drawn)
56 | 172 to 173 | CN1N=C(c2cccc(F)c2)c2cc(Cl)ccc2CS1(=O)=O
57 | 83 to 87 | c1ccc(CC[C@H]2CNCCN2)nc1
58 | 175 to 178 | O=[N+]([O-])c1ccc2nc3c(nc2c1)CCCC3
59 | 161 to 164 | COc1ccc(C2=NN(C3CCN(S(=O)(=O)c4ccc(C)cc4)CC3)C(=O)C(C)(C)C2)cc1OC
60 | 118 to 119 | Clc1cnc2ccc(Cl)c(Cl)c2n1
61 | 193 to 194 | Cc1cc2nc(-c3cc(C(F)(F)F)nn3-c3ccc(S(C)(=O)=O)cc3)sc2cc1F
62 | 100 to 101 | Oc1ccc2cc(Br)ccc2c1Cl
63 | 53 to 55 | COc1ccc(CSC2CC(=O)N2CC(=O)NCCCCCCc2ccc(F)cc2)cc1 (stereo not drawn)
64 | 154 to 157 | CNC(=O)[C@@H](C[C@H](O)[C@H](CC1CCCCC1)NC(=O)OC(C)(C)C)C(C)C
65 | 150 to 151 | O=c1[nH]cc(Br)cc1Nc1ccncn1
66 | 192 | O=C(C[C@@H]1COCCO1)N[C@H]1CC[C@H](CCN2CCN(c3nccc4c3CCO4)CC2)CC1
67 | 135 | CC(C)(C)c1cccc(S(=O)(=O)n2c(CCCCC(=O)O)cc3cc(C(F)(F)F)ccc32)c1
68 | 50 to 54 | COC=C(Oc1cccc(-c2ccc(Cl)cc2)n1)C(=O)OC
69 | 158 to 159 | CC1NC(=O)OC1c1ccc(C(F)(F)F)cc1 (stereo not drawn)

Row | melting point [°C] | Compound
70 | 114 to 115 | CC(C)c1cc(C(=O)C=CC(=O)N2CCN(C)CC2)ccc1OCC(=O)Nc1nc2ccccc2s1
71 | 171 to 172 | C=C(c1ccccc1)c1cccc(C(=NOCc2ccc(OCc3nc(-c4ccccc4)oc3C)cc2)C(=O)O)c1
72 | 192 to 193 | COC(=O)c1[nH]c2cccc(C)c2c1Sc1ccc(Cl)cc1
73 | 234 to 243 | CN(Cc1ccc(NC(=O)C2=Cc3cc(-c4ccc(N5CCOCC5)cc4)ccc3N(C=O)CC2)cc1)C1CCOCC1
74 | 208 | CC(C)(O)CC(=O)N[C@H]1CC[C@H](CCN2CCN(c3nccc4c3CCO4)CC2)CC1
75 | > 250 | O=c1[nH]c2cc3ccccc3cc2[nH]c1=O
76 | 158 to 160 | Cc1ccc(-c2c(NS(=O)(=O)c3ccc(C(C)(C)C)cc3)ncnc2OCCOc2ncc(CCc3ccccc3)cn2)cc1
77 | 159 to 160 | C=C(C(=O)c1cc(OC)c(OC)c(-c2cccs2)c1)c1ccc(C(=O)O)cc1
78 | 272 to 275 | Nc1cc2c(Nc3ccc(Br)c(Cl)c3)ncnc2cn1
79 | 226 | O=C(NOC1CCCCO1)c1cnc(N2CCC(NS(=O)(=O)c3ccc4ccccc4c3)CC2)nc1 (stereo not drawn)
80 | 206 | O=C1CCC(=NNc2ccccc2)c2ncccc2N1
81 | 146 to 147 | CC(=O)N[C@@H]1c2ccccc2C[C@@H]1C (relative stereo)
82 | 131 | CC[C@@H]1C(=O)N(Cc2ccc(OC)cc2OC)[C@H]1CC(=O)O (relative stereo)
83 | 102 | OC(Nc1cccc(C(F)(F)F)c1)c1cccnc1 (stereo not drawn)
84 | 158 to 160 | CCS(=O)(=O)c1c(CS(=O)(=O)C2=NOC(C)(C)C2)c(C(F)(F)F)nn1-c1ccccc1
85 | 165 | CCOC(=O)C1=C(C)NC(COCCN2C(=O)c3ccccc3C2=O)=C(C(=O)OC)C1c1cccc(Cl)c1Cl (stereo not drawn)
86 | 163 to 165 | CCSC1(SCC)CCC2C3CCC4=CC(=O)C=CC4(C)C3C(O)CC21C (stereo not drawn)
87 | 121 to 122 | CC(=O)Cc1ccc(OCC(O)CN2CCN(c3ccccc3)CC2)cc1 (stereo not drawn)
88 | 171 to 172 | CCc1cccc(CC)c1-n1cncc1C(N)=O
89 | 96 to 97 | CC(=O)c1cnn2ccccc12

Row | Compound | melting point [°C]
90 | CCOC(=O)CCNC(=O)C(Cc1ccc(-c2ccccc2)cc1)N(CP(=O)(O)O)C(OC(=O)Cc1ccccc1)C(C)C (stereo not drawn) | 148 to 150
91 | OC1OC(C2(c3ccccc3)CN2)N2CC12c1ccccc1 (stereo not drawn) | 53 to 55
92 | CCOC(=O)c1ccc2[nH]cc(C3=CCN(C)CC3)c2c1 | 249
93 | C=CCN1C2CCC3C1CCC2N3C(c1ccc(C(=O)N(CC)CC)cc1)c1cccc(O)c1 (stereo not drawn) | 147 to 150
94 | COc1ccc2c3c1O[C@H]1C[C@@H](O)C=C[C@@]31CCN(CCN1CCOCC1)C2 | 101 to 104
95 | COc1cc(Br)c(OC)c(C=O)c1 | 62 to 64
96 | CC(=O)c1cc2c(cc1C)C(C)(C)CCC2(C)C | 54 to 57
97 | N#Cc1nn(-c2c(Cl)cc(C(F)(F)F)cc2Cl)c(-n2cncn2)c1S(=O)(=O)C(F)(F)F | 172 to 174
98 | CC12CC(N3CCC(O)CC3)C(O)CC1CCC1C2CCC2(C)C(O)C(N3CCC4(CC3)OCCO4)CC12 (stereo not drawn) | 199 to 201
